Measured values: patent EP0292365A2, “4-Amino-5,8-quinazolindione derivatives, process for their preparation and pharmaceutical compositions containing them” (CENTRE NATIONAL DE LA RECHERCHE SCIENTIFIQUE, priority 1987, dated 1988)
Like-named read-outs stand apart in the source and are kept apart here.

Experiments:
[1] = system: Leucémie P388; format: in vivo, souris DBA/2; settings: for survivants 30 jours / Δ P J1-J5 / T/C / Doses actives (T/C ≥ 125 %): P388; for T/C: survivants inclus; for activité antitumorale sur la leucémie P388: summary
Source text: (§1) Afin de tester l'activité antitumorale des composés décrits plus haut, on a utilisé les leucémies murines P388 et L1210, ainsi que le mélanome murin B16. La leucémie P388 est considère comme très sensible et permet une première sélection. D'autre part, une substance ayant une grande activité sur la leucémie L1210 a une grande chance d'être active en clinique humaine (J.M. Venditti; Relevance of transplantable animal tumor systems to the Selection of new agents for clinical trial in pharmacological basis of cancer chemotherapy. The University of Texas ed. Williams and Wilkins, publ. 1975, Baltimore USA).
(§2) Cette étude a été réalisée sur 1, 2 ou 3 tumeurs murines expérimentales selon le schéma suivant :
(§3) Les produits en solution dans l'eau ou en suspension dans du Klucel sont administrés par voie intrapéritonéale 24 heures après la greffe des cellules tumorales (10 animaux par série), soit en injection unique (J1), soit pendant 9 jours consécutifs (Ji-9). Les morts sont relevés chaque jour à la même heure. La comparaison du temps médian de survie des souris témoins (C) et des souris traitées (T) permet d'apprécier l'activité antitumorale du produit. On adopte comme critère d'activité minimale la valeur de T/C supérieure ou égale à 125 % conformément aux critères établis par GERAN et par l'O.M.S. (Réf. GERAN R.I., GREENBERG N.H., MACDONALD M.M., SCHUMACHER A.M. and ABBOTT B.J. Protocols for screening chemical agents and natural products against animal tumors and other biological systems. Cancer Chemother. Rep. Part 3, 3, 1-103 (1972)).
(§4) Lorsque le composé est actif sur plusieurs tumeurs, son administration par d'autres voies que la voie intrapéritonéale (i.p.) est envisagée : orale (p.o) et intraveineuse (i.v). Les résultats des essais effectués à l'aide du composé 63 sont rassemblés dans le tableau IV ci-après.
Les résultats des essais effectués à l'aide des composés de l'invention n° 57 et 59 sont rassemblés dans le tableau IV Bis ci-après.
(§5) Dans les tableaux IV et IV Bis, P représentent la variation de poids entre J1 et J5 des animaux traités; lorsque P est supérieure à environ 4 g, cela signifie que la dose à laquelle le composé a été testé est toxique.

[2] = system: Leucémie L1210; format: in vivo, souris DBA/2; settings: for survivants 30 jours / Δ P J1-J5 / T/C / Doses actives (T/C ≥ 125 %): L1210, greffe ip(10^5cel.); for T/C: survivants inclus
Source text: as §1
La leucémie L1210 de la souris est en effet couramment utilisée pour l'évaluation de tous les composés antitumoraux actuellement mis en oeuvre en thérapeutique humaine, ainsi qu'il est décrit, par exemple par C.C. Zubrod dans Proc. Nat. Acad. Sci. USA 69, 1972, p. 1042-1047. Le système tumoral ainsi constitué expérimentalement permet une évaluation quantitative très précise de l'activité du composé testé, et, par conséquent aussi, une comparaison objective entre les activités respectives de différents composés, par exemple selon les méthodes décrites par R. E. Skipper, F. M. Schabel, Jr. et W. S. Wilcox dans Cancer Chemother. Rep., 35, 1964, p. 1-111 et 45, 1965, p.5-28.
as §2, §3, §4, §5

[3] = system: Mélanome B16; format: in vivo, souris BDF1
Source text: as §1, §2, §3, §4, §5

[4] = system: réticulosarcome M 5076; experiment: First trials on reticulosarcoma M 5076; format: in vivo; settings: souris; doses infratoxique; premiers essais
[5] = greffe ip(10^6cel.), ip J1-9, dose optimale 0,4 mg/kg/inj.
[6] = greffe ip(10^6cel.), ip J1, dose 1,25 mg/kg/inj.
[7] = greffe ip(10^6cel.), ip J1, dose optimale 3 mg/kg/inj.
[8] = greffe ip(10^6cel.), iv J1, dose 1,25 mg/kg/inj. (2 doses testées)
[9] = greffe ip(10^6cel.), po J1, dose optimale 30 mg/kg/inj.
[10] = greffe iv(10^5cel.), iv J1, dose 1,25 mg/kg/inj. (1 seule dose testée)
[11] = ip J1-9, dose optimale 0,4 mg/kg/inj.
[12] = ip J1, dose optimale 2 mg/kg/inj.
[13] = B16, greffe ip(susp. au 1/10), ip J1-9, dose optimale 0,2 mg/kg/inj.

## CN(C)CCCNc1ncnc2c1C(=O)C(N1CC1)=C(N1CC1)C2=O [composé 63]
[1]; [5]
  survivants 30 jours: 0
  Δ P J1-J5: -2,1 g
  T/C: 222%
[1]; [6]
  survivants 30 jours: 1
  Δ P J1-J5: -1,7 g
  T/C: 174%
[1]; [7]
  survivants 30 jours: 0
  Δ P J1-J5: -2,0 g
  T/C: 188%
[1]; [8]
  survivants 30 jours: 0
  Δ P J1-J5: -0,7 g
  T/C: 136%
[1]; [9]
  survivants 30 jours: 0
  Δ P J1-J5: -4,7 g
  T/C: 140%
[1]; greffe ip(10^6cel.), traitement ip J1
  Doses actives (T/C ≥ 125 %): 0,1-3 mg/kg/inj.
[1]; greffe ip(10^6cel.), traitement ip J1-9
  Doses actives (T/C ≥ 125 %): 0,017-0,8 mg/kg/inj.
[1]; greffe ip(10^6cel.), traitement po J1
  Doses actives (T/C ≥ 125 %): 20-30 mg/kg/inj.
[1]; [10]
  survivants 30 jours: 0
  Δ P J1-J5: -0,1 g
  T/C: 147%
[1]; par voie orale et par voie intraveineuse
  activité antitumorale sur la leucémie P388: reste actif
[1]; voie intrapéritonéale
  activité antitumorale sur la leucémie P388: excellente activité antitumorale
[2]; [11]
  survivants 30 jours: 1
  Δ P J1-J5: -1,6 g
  T/C: 174%
[2]; [12]
  survivants 30 jours: 1
  Δ P J1-J5: -2,8 g
  T/C: 160%
[2]; traitement ip J1
  Doses actives (T/C ≥ 125 %): 0,25-2 mg/kg/inj.
[2]; traitement ip J1-9
  Doses actives (T/C ≥ 125 %): 0,03-0,8 mg/kg/inj.
[2]; summary
  activité sur la leucémie L1210: très efficace
[3]; [13]
  survivants 60 jours: 2
  Δ P J1-J5: 0 g
[3]; B16, greffe ip(susp. au 1/10), ip J1-9, dose optimale 0,2 mg/kg/inj., survivants inclus
  T/C: 192%
[3]; B16, greffe ip(susp. au 1/10), traitement ip J1-9
  Doses actives (T/C ≥ 125 %): 0,05-0,8 mg/kg/inj.
[3]; summary
  activité sur le mélanome B16: très efficace
[4]
  activité sur le réticulosarcome M 5076: nette activité
